This note sets out measurements from ChEMBL document CHEMBL5465560, “Selectivity Literature for EUbOPEN Chemogenomic Library” (2024).

Assay [1] concerns the target T1, Discoidin domain-containing receptor 2 (Homo sapiens) (UniProt Q16832).
T1 sequence (whole entry): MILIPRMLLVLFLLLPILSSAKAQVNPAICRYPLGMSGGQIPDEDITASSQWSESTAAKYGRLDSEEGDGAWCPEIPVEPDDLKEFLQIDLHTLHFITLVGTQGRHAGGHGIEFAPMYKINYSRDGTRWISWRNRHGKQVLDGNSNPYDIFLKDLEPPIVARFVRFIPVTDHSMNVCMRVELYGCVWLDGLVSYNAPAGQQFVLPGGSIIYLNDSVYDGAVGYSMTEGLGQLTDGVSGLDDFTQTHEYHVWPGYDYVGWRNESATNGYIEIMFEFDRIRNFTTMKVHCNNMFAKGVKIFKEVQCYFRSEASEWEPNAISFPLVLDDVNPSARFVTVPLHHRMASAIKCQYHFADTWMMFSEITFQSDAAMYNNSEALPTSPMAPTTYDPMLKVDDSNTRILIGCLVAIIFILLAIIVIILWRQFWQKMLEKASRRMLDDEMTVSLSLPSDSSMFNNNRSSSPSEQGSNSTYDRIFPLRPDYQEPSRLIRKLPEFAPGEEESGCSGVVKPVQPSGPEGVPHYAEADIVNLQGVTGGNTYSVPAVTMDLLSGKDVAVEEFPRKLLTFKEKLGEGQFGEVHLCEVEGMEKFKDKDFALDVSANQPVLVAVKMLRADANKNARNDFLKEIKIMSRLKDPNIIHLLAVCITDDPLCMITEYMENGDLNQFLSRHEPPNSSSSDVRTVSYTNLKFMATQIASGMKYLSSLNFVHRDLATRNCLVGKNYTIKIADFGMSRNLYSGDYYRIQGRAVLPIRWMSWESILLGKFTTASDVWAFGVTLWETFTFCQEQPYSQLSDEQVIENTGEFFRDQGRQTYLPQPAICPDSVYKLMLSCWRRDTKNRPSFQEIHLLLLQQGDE
Nature of the assay: Selectivity interaction (KinomeScan (DiscoverX)) EUB0000607a DDR2. The settings on record: at 10 µM.

Assay [2] concerns the target Serine/threonine-protein kinase 10 (Homo sapiens) (UniProt O94804). Nature of the assay: Selectivity interaction (KinomeScan (DiscoverX)) EUB0000655a STK10. The settings on record: at 10 µM.
Assay [3] addresses Kappa-type opioid receptor (Homo sapiens, UniProt P41145). Nature of the assay: Selectivity interaction (Panel of kinases, GPCRs, ion channels and transporters (enzymatic assay)) EUB0000266bCl OPRK1.
In assay [4] the target is T2, Serine/threonine-protein kinase tousled-like 1 (Homo sapiens) (UniProt Q9UKI8).
T2 sequence (whole entry): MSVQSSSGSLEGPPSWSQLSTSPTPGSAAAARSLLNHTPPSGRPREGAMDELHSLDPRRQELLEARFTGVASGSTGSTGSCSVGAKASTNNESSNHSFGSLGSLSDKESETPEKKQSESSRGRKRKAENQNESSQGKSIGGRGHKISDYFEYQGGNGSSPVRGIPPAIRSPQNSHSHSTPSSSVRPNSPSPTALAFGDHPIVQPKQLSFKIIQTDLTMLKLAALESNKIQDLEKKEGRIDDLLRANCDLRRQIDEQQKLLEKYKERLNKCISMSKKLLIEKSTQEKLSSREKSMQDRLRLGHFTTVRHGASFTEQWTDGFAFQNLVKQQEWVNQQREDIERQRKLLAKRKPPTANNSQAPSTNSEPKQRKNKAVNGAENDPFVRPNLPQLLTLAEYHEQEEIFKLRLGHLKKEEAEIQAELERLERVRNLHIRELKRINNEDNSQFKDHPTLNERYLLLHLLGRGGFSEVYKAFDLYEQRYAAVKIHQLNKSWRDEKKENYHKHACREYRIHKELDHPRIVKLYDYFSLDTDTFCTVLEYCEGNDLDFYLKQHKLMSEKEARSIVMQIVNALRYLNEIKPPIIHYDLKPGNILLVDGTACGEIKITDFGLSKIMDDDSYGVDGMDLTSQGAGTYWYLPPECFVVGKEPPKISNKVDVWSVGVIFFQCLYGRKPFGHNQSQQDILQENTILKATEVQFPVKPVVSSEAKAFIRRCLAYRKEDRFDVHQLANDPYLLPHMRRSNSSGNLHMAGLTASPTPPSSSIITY
Briefly: Selectivity interaction (ActivX KiNativ screen (kinase selectivity in THP-1 cell lysates)) EUB0000639a TLK1. The class given is subcellular. The settings on record: lysate, at 0.2 µM.

Assay [5] concerns the target Dual specificity mitogen-activated protein kinase kinase 1 (Homo sapiens, UniProt Q02750). The settings on record: at 10 µM.
In assay [6] the target is Bone morphogenetic protein receptor type-1A (Homo sapiens, UniProt P36894). Briefly: Selectivity interaction (ProQinase) EUB0000171b BMPR1A.
The target in assay [7] is T3, Serine/threonine-protein kinase Nek2 (Homo sapiens) (UniProt P51955).
T3 sequence (whole entry): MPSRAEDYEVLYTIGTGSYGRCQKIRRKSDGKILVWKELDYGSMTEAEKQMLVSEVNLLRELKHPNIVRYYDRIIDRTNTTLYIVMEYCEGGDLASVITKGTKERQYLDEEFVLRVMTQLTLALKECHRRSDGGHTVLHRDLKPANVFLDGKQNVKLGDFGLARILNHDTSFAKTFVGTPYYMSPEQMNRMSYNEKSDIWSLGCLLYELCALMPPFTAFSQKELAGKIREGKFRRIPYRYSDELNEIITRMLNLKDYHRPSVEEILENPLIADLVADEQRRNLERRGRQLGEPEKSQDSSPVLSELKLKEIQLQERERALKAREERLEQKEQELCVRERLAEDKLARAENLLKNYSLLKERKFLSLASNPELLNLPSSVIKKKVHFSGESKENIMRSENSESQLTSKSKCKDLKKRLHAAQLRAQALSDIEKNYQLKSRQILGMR
Briefly: Selectivity interaction (ProQinase) EUB0000171b NEK2.

Bone morphogenetic protein receptor type-1A, sequence (P36894 whole entry): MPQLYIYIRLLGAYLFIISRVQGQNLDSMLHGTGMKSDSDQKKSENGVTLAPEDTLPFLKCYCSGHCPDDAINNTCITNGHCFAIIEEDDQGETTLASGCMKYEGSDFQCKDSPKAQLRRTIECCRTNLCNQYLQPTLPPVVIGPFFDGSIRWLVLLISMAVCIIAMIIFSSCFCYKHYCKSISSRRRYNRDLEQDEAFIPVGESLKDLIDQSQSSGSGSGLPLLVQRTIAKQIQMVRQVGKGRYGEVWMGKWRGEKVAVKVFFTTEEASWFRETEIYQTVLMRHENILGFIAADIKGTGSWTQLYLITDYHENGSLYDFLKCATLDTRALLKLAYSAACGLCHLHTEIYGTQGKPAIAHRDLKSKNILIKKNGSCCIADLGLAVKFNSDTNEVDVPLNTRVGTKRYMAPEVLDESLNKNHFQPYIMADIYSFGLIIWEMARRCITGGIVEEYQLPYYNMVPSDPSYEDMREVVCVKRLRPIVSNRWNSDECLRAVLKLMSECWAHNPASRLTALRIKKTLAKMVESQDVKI
Serine/threonine-protein kinase 10 (Homo sapiens), sequence (O94804 whole entry, looked up): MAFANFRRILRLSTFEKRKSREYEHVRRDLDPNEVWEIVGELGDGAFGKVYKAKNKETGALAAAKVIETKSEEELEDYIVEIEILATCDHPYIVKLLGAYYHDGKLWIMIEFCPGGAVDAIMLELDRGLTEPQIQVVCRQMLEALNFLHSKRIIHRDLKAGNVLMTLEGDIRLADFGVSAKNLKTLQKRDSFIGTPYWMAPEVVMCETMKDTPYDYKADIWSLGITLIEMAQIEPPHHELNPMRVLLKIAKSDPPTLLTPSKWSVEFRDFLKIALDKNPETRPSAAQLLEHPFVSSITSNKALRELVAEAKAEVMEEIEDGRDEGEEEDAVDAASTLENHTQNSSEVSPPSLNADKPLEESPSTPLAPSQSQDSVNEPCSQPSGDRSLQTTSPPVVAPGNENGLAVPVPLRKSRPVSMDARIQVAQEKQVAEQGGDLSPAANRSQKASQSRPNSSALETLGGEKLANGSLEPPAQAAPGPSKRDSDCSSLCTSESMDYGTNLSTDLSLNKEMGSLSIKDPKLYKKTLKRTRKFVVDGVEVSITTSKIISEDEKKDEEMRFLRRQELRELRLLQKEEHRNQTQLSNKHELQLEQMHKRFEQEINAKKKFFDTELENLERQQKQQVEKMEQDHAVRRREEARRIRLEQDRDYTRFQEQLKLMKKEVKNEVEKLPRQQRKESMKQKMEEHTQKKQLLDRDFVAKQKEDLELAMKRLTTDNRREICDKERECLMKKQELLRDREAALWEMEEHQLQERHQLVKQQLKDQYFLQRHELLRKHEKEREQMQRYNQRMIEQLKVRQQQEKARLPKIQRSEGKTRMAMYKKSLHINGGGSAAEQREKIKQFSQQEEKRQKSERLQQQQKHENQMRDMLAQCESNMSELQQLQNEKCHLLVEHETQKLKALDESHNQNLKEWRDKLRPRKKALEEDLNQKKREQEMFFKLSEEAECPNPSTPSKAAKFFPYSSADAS
Dual specificity mitogen-activated protein kinase kinase 1, sequence (Q02750 whole entry): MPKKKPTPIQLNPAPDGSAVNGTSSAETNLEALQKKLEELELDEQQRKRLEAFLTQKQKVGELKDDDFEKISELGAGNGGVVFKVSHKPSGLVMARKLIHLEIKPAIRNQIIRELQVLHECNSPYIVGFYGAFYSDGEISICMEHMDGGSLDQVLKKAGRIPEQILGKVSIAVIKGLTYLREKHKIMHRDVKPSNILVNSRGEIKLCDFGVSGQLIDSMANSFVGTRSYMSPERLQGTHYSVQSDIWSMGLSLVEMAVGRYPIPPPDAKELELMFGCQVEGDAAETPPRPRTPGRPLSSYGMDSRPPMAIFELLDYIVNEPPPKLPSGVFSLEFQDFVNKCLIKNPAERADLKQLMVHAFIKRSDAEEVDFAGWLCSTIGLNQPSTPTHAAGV
Kappa-type opioid receptor, sequence (P41145 whole entry): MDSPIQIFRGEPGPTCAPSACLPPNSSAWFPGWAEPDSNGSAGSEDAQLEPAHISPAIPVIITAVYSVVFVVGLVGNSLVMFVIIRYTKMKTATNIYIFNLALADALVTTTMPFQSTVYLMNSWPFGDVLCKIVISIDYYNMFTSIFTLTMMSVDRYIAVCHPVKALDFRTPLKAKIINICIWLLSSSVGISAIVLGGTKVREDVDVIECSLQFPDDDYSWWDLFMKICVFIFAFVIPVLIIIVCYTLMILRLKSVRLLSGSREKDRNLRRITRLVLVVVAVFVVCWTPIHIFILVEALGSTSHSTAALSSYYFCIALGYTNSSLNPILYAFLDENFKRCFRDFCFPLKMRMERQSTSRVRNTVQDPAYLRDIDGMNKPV

In turn, `CNC(=O)Nc1ccc(-c2nc(N3CC4CCC(C3)O4)c3cnn(C4CCC5(CC4)OCCO5)c3n2)cc1` gave a % of control in assay [1] of 100%.
With `CN(C)CCOc1ccc(-c2nc(-c3ccncc3)c(-c3ccc4c(c3)CC/C4=N\O)[nH]2)cc1`, in assay [2], the % of control is 0.6%.
`CCn1c(-c2nc3cc(C(=O)N4CCCC(N)C4)ccc3n2C)cc2ccccc21` (centres undefined): the pXC50 in assay [3] is < 4 M.
Consider `CC[C@@H]1[C@H](F)C(=O)N[C@@H]1COc1nccc2cc(C(N)=O)c(OC)cc12` [ZIMLOVISERTIB], for which, in assay [4], the % of inhibition was 9.2%.
In assay [5], `CCN(CC)CCCCNc1ncc2cc(-c3cc(OC)cc(OC)c3)c(NC(=O)NC(C)(C)C)nc2n1` gave a % of control of 100%.
With `C=CC(=O)Nc1cccc(C(=O)Nc2ccc(Nc3cc(-c4[nH]c(SC)nc4C)ccn3)cc2)c1`, the % of control is 83% in assay [6] (at 1 µM), 88% in assay [6] (at 5 µM), 92% in assay [7] (at 1 µM) and 78% in assay [7] (at 5 µM).
